Data: patent US11938129B2, “Methods and compositions for the treatment of vascular disease” (THE GENERAL HOSPITAL CORPORATION, priority 2018, dated 2024)
Entries after “also recorded” stand apart in the source; their conditions may differ.

What was measured:
[1] = system: aortic aneurysm in Fbn1C1039G/+ mice; assay: experimental aortic aneurysm in Fbn1C1039G/+ mice: echocardiographic aortic dimensions; assay type: in vivo, mouse; conditions: Fbn1C1039G/+ mice treated from two to six months of life, drinking water
Excerpt: Dimensions from each animal represent averages of measurements made on still frames in systole of the maximal internal diameter of the aortic valve annulus, aortic sinuses, sinotubular junction, or ascending aorta by a cardiologist blinded to genotype. The aorta was imaged using a standard parasternal long axis view. Based on historic controls, the mean diameter of the wild type aortic root at 4 months of life is 1.73+/-0.2 mm while in our disease model (Fbn1ci°[…]/+) the mean diameter is 2.15+/-0.3 mm. […] Nair hair removal cream was used on all mice the day prior to echocardiograms. All echocardiograms were performed on awake, unsedated mice using the Visualsonics Vevo imaging system and a 30 MHz transducer. All CT images were acquired using an Inveon small animal micro CT (Siemens Medical Solutions Inc., Malven, Pa.). All mice received intravenous iodinated contrast (Isovue-370, Bracco Diagnostic Inc.) at 20 pL/min during the scan. […] Images were visualized and analyzed in OsiriX software. Cohorts of 8-week-old wild-type or Fbn1cw3gGi+ mice were treated with oral administration in drinking water of either Losartan or GSK343 for 20 weeks (FIG. 5). […] Then 200 mL of drinking water was supplemented with 250 pL of GSK343 stock solution. […] Aortic dimensions were monitored monthly by echocardiograms as mentioned above.

[2] = system: VSMC phenotypic markers; assay: expression of VSMC phenotypic markers in aortas of treated Fbn1C1039G/+ mice; assay type: in vivo, mouse; conditions: aortas of Fbn1C1039G/+ mice treated from two to six months
Description: Total RNA was prepared from tissue or primary cells using RNeasy kit (Qiagen) following the manufacturer's protocol. The cDNA was prepared by reverse transcription, and expression of SMC contractile genes were analyzed by qRT-PCR on SYBR green system (Applied Biosystem, Foster city, CA). 50 pL of plasma from wild-type or Fbn1cl° 39G1+ mice were used to prepare total RNA as mentioned above. Expression results were analyzed by the ddCT method and GAPDH (encoding glyceraldehyde-3-phosphate dehydrogenase) was used as a housekeeping gene. Fold change were calculated by taking the average over all the control samples as the baseline. […] The supernatant was removed and the vesicular fraction was resuspended with 750 pL of TRizol reagent followed by RNA extraction using the RNeasy kit (Qiagen) according to the manufacturer's protocol. Cohorts of 8-week-old wild-type or Fbn1cw3gGi+ mice were treated with oral administration in drinking water of either Losartan or GSK343 for 20 weeks (FIG. 5). […] Then 200 mL of drinking water was supplemented with 250 pL of GSK343 stock solution. Control group for either drug treatment was given with equal volumes of sterile water. Bottles containing either losartan or GSKS343 were replaced with fresh water supplied with drugs every 3 days. For experiments described in FIG. 5A-5C, 16-week-old wild-type or Fbnicw3gGi+ mice were treated for 8 weeks and as described above. Additionally, a group of mice were given a combination of both losartan and GSK343 at the same concentrations as of other single drug treatments. Aortic dimensions were monitored monthly by echocardiograms as mentioned above.

[3] = system: aortic wall of Fbn1C1039G/+ mice; assay: histologic analysis of aortas of treated Fbn1C1039G/+ mice; assay type: in vivo, mouse; conditions: aortas of Fbn1C1039G/+ mice treated from two to six months
Description: (§1) Latex was injected into the left ventricular apex under low pressure until it was visible in the femoral artery. Animals were then fixed in Formalin (10%) for 24 hours before transfer to 70% ethanol for dissection and storage. Aortas were then removed from the animals or dissected in situ for photography prior to paraffinization and sectioning (10 pM). Slides were produced for tissue staining or stained with standard stains including H&E staining, collagen deposition (Trichrome Stain (Masson) Kit, Sigma, USA), elastin (Verhoeff-Van Gieson, Thermo Scientific, MI, USA) or F-actin (ActinGreen™ 488 ReadyProbes, ThermoFisher Scientific, USA) for quantitative analysis. Elastin integrity score was rated by blinded observers and graded on an arbitrary scale of 5 (indicating high quality elastic fiber) to 1 (indicating severe elastin fragmentation). For nuclear staining aortas from human and mice were cryosectioned using OCT standard protocol as described previously (Fischer et al., 2008). Cohorts of 8-week-old wild-type or Fbn1cw3gGi+ mice were treated with oral administration in drinking water of either Losartan or GSK343 for 20 weeks (FIG. 5). […] Then 200 mL of drinking water was supplemented with 250 pL of GSK343 stock solution. Control group for either drug treatment was given with equal volumes of sterile water. Bottles containing either losartan or GSKS343 were replaced with fresh water supplied with drugs every 3 days. For experiments described in FIG. 5A-5C, 16-week-old wild-type or Fbnicw3gGi+ mice were treated for 8 weeks and as described above. Additionally, a group of mice were given a combination of both losartan and GSK343 at the same concentrations as of other single drug treatments. Aortic dimensions were monitored monthly by echocardiograms as mentioned above.

[4] = system: H3K27me3; assay: H3K27me3 staining in aortas of treated Fbn1C1039G/+ mice; assay type: in vivo, mouse; conditions: compared to control or losartan treated mice
Description: as §1, with “Control group for either drug treatment was given with equal volumes of sterile water. Bottles containing either losartan or GSKS343 were replaced with fresh water supplied with drugs every 3 days. For experiments described in FIG. 5A-5C, 16-week-old wild-type or Fbnicw3gGi+ mice were treated for 8 weeks and as described above. Additionally, a group of mice were given a combination of both losartan and GSK343 at the same concentrations as of other single drug treatments.” left out

[5] = system: TGF-β signaling; assay: TGF-β activity by phosphorylation of Smad2 or Erk1 in aortas of treated mice; assay type: in vivo, mouse; conditions: aortic tissue of treated Fbn1C1039G/+ mice
Description: as §1, with “Control group for either drug treatment was given with equal volumes of sterile water. Bottles containing either losartan or GSKS343 were replaced with fresh water supplied with drugs every 3 days. For experiments described in FIG. 5A-5C, 16-week-old wild-type or Fbnicw3gGi+ mice were treated for 8 weeks and as described above. Additionally, a group of mice were given a combination of both losartan and GSK343 at the same concentrations as of other single drug treatments.” left out

[6] = system: SM22a; assay: immunostaining of SM22a protein in aortas of treated Fbn1C1039G/+ mice; assay type: in vivo, mouse; conditions: compared to control Fbn1C1039G/+ mice
Description: as §1, with “Control group for either drug treatment was given with equal volumes of sterile water. Bottles containing either losartan or GSKS343 were replaced with fresh water supplied with drugs every 3 days. For experiments described in FIG. 5A-5C, 16-week-old wild-type or Fbnicw3gGi+ mice were treated for 8 weeks and as described above. Additionally, a group of mice were given a combination of both losartan and GSK343 at the same concentrations as of other single drug treatments.” left out

[7] = system: neointimal formation in ligated carotid; assay: murine carotid artery ligation model: neointimal formation and stenosis (histology); assay type: in vivo, mouse; conditions: wild-type mice, left carotid ligation, 21 days; GSK343 in drinking water from 24 hrs before ligation for 3 weeks; GapmeR 15 nmol 24 hrs before and 7 days post-ligation
Description: (§2) All mice used in this study were cared for under strict compliance with the Partners Institutional Animal Care and Use Committee (IACUC), regulated by the United States Public Health Service (USPHS). Carotid ligations were performed in 10 week old mice. Briefly, animals were anesthetized using intraperitoneal ketamine/xylazine (80 and 12 mg/kg, respectively) followed by a small incision in the neck to expose the carotid artery. Then the left carotid was ligated at the carotid bifurcation level using a 8-0 silk suture. At 21 days mice were sacrificed and carotids were collected for histological analysis. Approximately 98% of wild type mice developed stenotic lesions. Mice that developed thrombosis of the ligated carotid were excluded from the study (−1¬2%). Malatl knockout mice were kindly provided by Dr. David Spector (Cold Spring Harbor, N.Y.). Hdac9 flox/flox/Talgn-cre mice were generated as previously reported (10). […]
(§3) Left and right carotids were cryosectioned using OCT standard protocol and sectioning. […] Slides 1, 5, 10, and 15 were H&E stained for quantification of neointima. For quantification of the neointima, internal and external elastic lamina perimeters and medial thickness from 4 quadrants were measured and averaged using Image J software from the National Institutes of Health (NIH). […]

[8] = system: a-SMA and SM22a; assay: immunofluorescence of contractile proteins in ligated carotids; assay type: in vivo, mouse; conditions: ligated carotids of treated mice
Description: All mice used in this study were cared for under strict compliance with the Partners Institutional Animal Care and Use Committee (IACUC), regulated by the United States Public Health Service (USPHS). Carotid ligations were performed in 10 week old mice. Briefly, animals were anesthetized using intraperitoneal ketamine/xylazine (80 and 12 mg/kg, respectively) followed by a small incision in the neck to expose the carotid artery. Then the left carotid was ligated at the carotid bifurcation level using a 8-0 silk suture. At 21 days mice were sacrificed and carotids were collected for histological analysis. Approximately 98% of wild type mice developed stenotic lesions. Mice that developed thrombosis of the ligated carotid were excluded from the study (−1¬2%). Malatl knockout mice were kindly provided by Dr. David Spector (Cold Spring Harbor, N.Y.). Hdac9 flox/flox/Talgn-cre mice were generated as previously reported (10). Ezh2 fl/fl/ (STOCK Ezh2tm2Sho/J) and Myh11-cre-GFP (B6.Cg-Tg(Myh11-cre,-EGFP)2Mik/J) were crossed to generate smooth muscle cell-Ezh2 deficient mice. All above mice and wild-type mice (C57BL/6J) were purchased from Jackson laboratory. For tissue analysis, animals were euthanized through inhalational isoflurane (Sigma, St, Louis, Mo.) prior to tissue collection. All carotid ligation (left carotid) procedures were performed at 10 weeks of age. All experiments were performed on male and female animals at a 1:1 ratio.
Left and right carotids were cryosectioned using OCT standard protocol and sectioning. The right carotid artery was unligated and served as an internal control. Neoinitima analysis was performed from hematoxylin and eosin (H & E) stained horizontal cross-sections embedded in Optimal Cutting Temperature compound (OCT). Briefly, the distal 0.2 mm of carotid from the ligation suture site were discarded followed by generation of 20 slides (10 pM). Slides 1, 5, 10, and 15 were H&E stained for quantification of neointima. For quantification of the neointima, internal and external elastic lamina perimeters and medial thickness from 4 quadrants were measured and averaged using Image J software from the National Institutes of Health (NIH). Slides 2-4, 6-9, and 11-14 were used for immunofluorescence staining.
Cohorts of 10-week-old wild-type mice were treated with oral administration in drinking water of GSK343 24 hrs before left carotid ligation and following treatment for 3 weeks. GSK343 inhibitor (25 mg) was dissolved in 1 mL of DMSO to obtain a stock solution of 46 mM. Then, 250 ml of drinking water was supplemented with 250 pl of GSK343 stock solution. Control group for was given with equal volumes of sterile water. Bottles containing GSK343 were replaced with fresh water supplied with drug every 3 days. […]

[9] = system: MMP2 and MMP9 activity; assay: in vivo MMP activity (MMPSense 750 FAST) after carotid ligation; set-up: species or system mouse; conditions: 24 h post injection, ligated mice
Description: Mice were tail vein injected with 600 uL of MMPSense 750 FAST, a near-infrared fluorescence sensor for MMP2 and MMP9 activity, (PerkinElmer, USA). Mice were sacrificed 24 h post injection and aortas were dissected and analyzed using a Kodak image station 4000MM Pro for macroscopic fluorescence reflectance molecular imaging.
Cohorts of 10-week-old wild-type mice were treated with oral administration in drinking water of GSK343 24 hrs before left carotid ligation and following treatment for 3 weeks. GSK343 inhibitor (25 mg) was dissolved in 1 mL of DMSO to obtain a stock solution of 46 mM. Then, 250 ml of drinking water was supplemented with 250 pl of GSK343 stock solution. Control group for was given with equal volumes of sterile water. Bottles containing GSK343 were replaced with fresh water supplied with drug every 3 days. For Malatl antisense LNA treatments, cohorts of 10-week-old wild-type mice were injected with 15 nmol in saline solution 24 hrs before left carotid ligation following by a second injection 7 days post-ligation.

[10] = system: PDGFR; assay: immunofluorescence of p-PDGFR in ligated carotid; assay type: in vivo, mouse; conditions: media and intima of carotid arteries
Description: as §2, §3

[11] = system: FAK; assay: immunofluorescence of p-FAK in ligated carotid; assay type: in vivo, mouse; conditions: media and intima of carotid arteries
Description: as §2, §3

[12] = system: Hdac9; assay: immunofluorescence of Hdac9 in ligated carotid; assay type: in vivo, mouse; conditions: arterial media and intima of carotid arteries
Description: as §2, §3

[13] = system: Mmp9; assay: immunofluorescence of Mmp9 in ligated carotid; assay type: in vivo, mouse; conditions: arterial media and intima of carotid arteries
Description: as §2, §3

Molecule	aortic dimensions [1]	synthetic markers (Col1a1, Col3a1, Gja1, Mmp2) [2]	aortic architecture and filamentous actin content [3]	elastin integrity [3]	H3K27me3 staining / aortic medial H3K27me3 modifications [4]	TGF-β activity as assessed by phosphorylation of Smad2 or Erk1 protein [5]	SM22a protein expression (immunostaining of aortas) [6]	extent of the stenotic response / neointimal formation [7]	expression of contractile proteins such as a-SMA and SM22a [8]	activity of MMPs [9]	phosphorylation of PDGFR [10]	phosphorylation of FAK [11]	accumulation of Hdac9 [12]	accumulation of Mmp9 [13]
CCCCc1nc(Cl)c(CO)n1Cc1ccc(-c2ccccc2-c2nnn[n-]2)cc1.[K+] [Losartan]	ability to improve aortic dimensions	better ability to decrease	improvement	improve elastin integrity overall	did not	reduced	recovery of SM22a protein expression	–	–	–	–	–	–	–
GapmeR-Malatl: GapmeR antisense oligonucleotide against MALAT1, GTCACAATGCATTCTA (SEQ ID NO: 1) (LNA gapmer, pattern not given here)	–	–	–	–	–	–	–	significant inhibition of neointimal formation; also recorded: dramatically improved the extent of the stenotic response	improved the expression of contractile proteins	Inhibition of Mmp activity; also recorded: inhibited the activity of MMPs	dramatic reduction	dramatic reduction	decreased accumulation	decreased accumulation
